“And” between values parts separate entries of the source, which are not always exact repeats. Equal entries are not always repeated. Where two headings read alike, the source gives them in different places.
Assays:
[1] = target: T1, LPAAT-β (Homo sapiens, UniProt O15120); details: previously reported inhibitors; cited from earlier work
T1 sequence (O15120 24-278): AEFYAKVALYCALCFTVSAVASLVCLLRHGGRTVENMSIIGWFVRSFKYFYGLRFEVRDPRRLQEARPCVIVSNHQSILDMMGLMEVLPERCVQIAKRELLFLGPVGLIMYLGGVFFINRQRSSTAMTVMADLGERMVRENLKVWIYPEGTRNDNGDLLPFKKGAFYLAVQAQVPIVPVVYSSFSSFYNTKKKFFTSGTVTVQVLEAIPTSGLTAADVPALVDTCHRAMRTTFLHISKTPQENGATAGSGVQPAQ

[2] = system: MiaPaCa2 human pancreatic cancer cells; experiment: inhibition of proliferation, Alamar blue, 72 h; assay type: cell-based
Description: The ability of selected compounds from the libraries 6, 15 and 19 to inhibit the growth of MiaPaCa2 human pancreatic cancer cells was investigated. Human pancreatic carcinoma (MiaPaCa2) cells were plated at a low confluency into 96-well tissue culture-treated plates. After allowing cells to attach and grow overnight at 37 degrees in a 5% CO2 incubator, growth medium was replaced with fresh medium (100 μl/well) containing compounds in a range from 0.1-100 μM. All treatments were made from 500× stock solutions in DMSO, and the control wells received an equivalent amount of DMSO in medium. After 72 hours of growth in the presence of the compounds, Alamar blue was added to the wells according to the manufacturer's instructions (Life Technologies, Grand Island, N.Y.) and cells were incubated in its presence for 2-3 hours. Fluorescence readings were performed using a Biotek Synergy II plate reader with […] wavelengths of 530/590 nm. […] Calculated IC50s are representative of at least three independent experiments.

[3] = target: T1, LPAAT-β; experiment: DTNB (Ellman's reagent) 96-well plate screening assay of LPAAT-β enzymatic activity; assay type: biochemical; design: The assay utilizes full-length, recombinant, baculovirus-produced LPAAT-β; made in house
Description: Screening with a modified screening assay in 96-well plate format for LPAAT-β enzymatic activity was performed as reported by Aguado and Campbell (Aguado et al., Characterization of a human lysophosphatidic acid acyltransferase that is encoded by a gene located in the class III region of the human major histocompatibility complex. J. Biol. Chem. 1998, 273, 4096-105).
The assay utilizes full-length, recombinant, baculovirus-produced LPAAT-β, which catalyzes the production of dioleoyl-[…] from the enzymatic substrates oleoyl-lysophosphatidic acid (LPA) and oleoyl-coenzyme A (Scheme 2). The ability of the compound to inhibit the LPAAT-β activity was assayed by the colorimetric measurement of the reaction of the free thiol group of the released coenzyme A with Ellman's reagent [5,5′-dithiobis-(2-nitrobenzoic acid) or DTNB] (Riener et al., Quick measurement of protein sulfhydryls with Ellman's reagent and with 4,4′-dithiodipyridine. Anal. Bioanal. Chem. 2002, 373, 266-76). […] A hit identified from the Life Chemicals library 6a (IC50 100 nM) was selected for further investigation.

[4] = target: T1, LPAAT-β; experiment: secondary thin layer chromatography (TLC) assay measuring fluorescent PA; assay type: biochemical; design: The assay utilizes full-length, recombinant, baculovirus-produced LPAAT-β; made in house
[5] = read-out: IC50 (μM) (DTNB assay) (converted)
[6] = Table 4, read-out: IC50 (μm) (DTNB assay) (converted)

Row | Compound | IC50 [3, 5] | IC50 [4] | IC50 [3, 6] | IC50 ([4]; Table 4) | also measured
1 | CCOc1ccc(Cl)cc1-c1cc(Nc2ccc(Cl)cc2)nc(N)n1 [Compound 1] |  |  |  |  | in vitro activity against LPAAT-β enzyme activity, in words [1]: potent in vitro activity
2 | C=CCc1cccc(/C=N/NC(N)=S)c1O [Compound 6a] | 0.86 ± 0.52 µM | 33 ± 13 µM |  |  | IC50 ([2]; Homo sapiens, MIA PaCa-2): 38 ± 17 µM; IC50 ([3]; hit from the Life Chemicals library, before resynthesis, read-out: IC50 of the hit in the library screen): 0.1 µM
3 | NC(=S)NN=Cc1ccccc1O [Compound 6b] | > 100 µM | > 100 µM |  |  | LPAAT-β inhibitory activity in words (assay not given) [3]: inactive; LPAAT-β inhibitory activity in words (TLC assay) [4]: inactive
4 | NC(=S)NN=Cc1cccc(O)c1O [Compound 6c] | > 100 µM | > 10 µM |  |  | LPAAT-β inhibitory activity in words (assay not given) [3]: inactive
5 | CCOc1cccc(C=NNC(N)=S)c1O [Compound 6d] | > 100 µM | > 10 µM |  |  | LPAAT-β inhibitory activity in words (assay not given) [3]: inactive
6 | NC(=S)NN=Cc1cccc(F)c1O [Compound 6e] | 4.3 µM | > 10 µM |  |  | 
7 | NC(=S)NN=Cc1cccc(Cl)c1O [Compound 6f] | 2 µM | > 10 µM |  |  | 
8 | NC(=S)NN=Cc1cccc(Br)c1O [Compound 6g] | 1.5 µM | > 10 µM |  |  | 
9 | Cc1cccc(C=NNC(N)=S)c1O [Compound 6h] | 7.5 µM | > 10 µM |  |  | 
10 | NC(=S)NN=Cc1cccc(C(F)(F)F)c1O [Compound 6i] | 7 µM | > 10 µM |  |  | 
11 | CCc1cccc(C=NNC(N)=S)c1O [Compound 6j] | 0.85 ± 0.56 µM | 48 ± 15 µM |  |  | IC50 ([2]; Homo sapiens, MIA PaCa-2): 36 ± 20 µM
12 | CCCc1cccc(C=NNC(N)=S)c1O [Compound 6k] |  | 19 ± 11 µM |  |  | 
13 | CC(C)c1cccc(C=NNC(N)=S)c1O [Compound 6l] | 13 ± 8.4 µM | 30 µM |  |  | 
14 | NC(=S)NN=Cc1cccc(-c2ccccc2)c1O [Compound 6m] | 40 ± 10 µM | > 10 µM |  |  | 
15 | NC(=S)NN=Cc1cccc(C2CCCCC2)c1O [Compound 6n] | > 100 µM | > 10 µM |  |  | 
16 | CCCCc1cccc(C=NNC(N)=S)c1O [Compound 6o] |  | > 10 µM |  |  | 
17 | CCCCCc1cccc(C=NNC(N)=S)c1O [Compound 6p] | > 100 µM | > 10 µM |  |  | 
18 | CCCCCCCc1cccc(C=NNC(N)=S)c1O [Compound 6q] | > 100 µM | 9.7 µM |  |  | 
19 | NC(=S)NN=Cc1cccc(CCCc2ccccc2)c1O [Compound 6r] | > 100 µM |  |  |  | 

Row | Compound | IC50 [3, 5] | IC50 [4] | IC50 [3, 6] | IC50 ([4]; Table 4) | also measured
20 | NC(=S)N/N=C/c1ccc2ccccc2c1O [Compound 6s] | 6.4 ± 4.7 µM |  |  |  | 
21 | NC(=S)N/N=C/c1cccc2c1oc1ccccc12 [Compound 6t] |  |  |  |  | LPAAT-β inhibitory activity in words (assay not given) [3]: inactive
22 | C=CCc1cccc(/C=N/NC(N)=O)c1O [Compound 6w] |  |  |  |  | LPAAT-β inhibitory activity in words (assay not given) [3]: inactive
23 | C=CCc1cccc(C=NNC(=S)NC)c1O [Compound 10a] | 3.9 ± 2.3 µM | > 10 µM |  |  | 
24 | CCCc1cccc(C=NNC(=S)NC)c1O [Compound 10b] | 14 ± 12 µM | > 10 µM |  |  | 
25 | CCCc1cccc(C=NNC(=S)NC(=O)c2ccccc2)c1O [Compound 10c] | > 100 µM |  |  |  | LPAAT-β inhibitory activity in words (assay not given) [3]: inactive
26 | C=CCc1cccc(C=NN=c2scc(-c3ccccc3)n2C)c1O [Compound 11a] | > 100 µM | > 10 µM |  |  | LPAAT-β inhibitory activity in words (assay not given) [3]: inactive
27 | CCCc1cccc(C=NN=c2scc(-c3ccccc3)n2C)c1O [Compound 11b] | > 100 µM | > 10 µM |  |  | LPAAT-β inhibitory activity in words (assay not given) [3]: inactive
28 | C=CCc1cccc(C=NN=c2[nH]c(-c3ccccc3)cs2)c1O [Compound 11c] | > 100 µM | > 10 µM |  |  | 
29 | CCCc1cccc(C(C)=NNC(N)=S)c1O [Compound 15a] | 0.65 ± 0.42 µM | 35 ± 18 µM |  |  | IC50 ([2]; Homo sapiens, MIA PaCa-2): 23 ± 15 µM
30 | C=CCc1cccc(C(C)=NNC(N)=S)c1O [Compound 15b] | 0.52 ± 0.25 µM | > 10 µM |  |  | 
31 | CCc1cccc(C(C)=NNC(N)=S)c1O [Compound 15c] | 0.73 ± 0.76 µM | > 10 µM |  |  | 
32 | C=CCc1cc(Cl)cc(C(C)=NNC(N)=S)c1O [Compound 15d] | 0.2 µM | 32 µM |  |  | 
33 | CC(=NNC(N)=S)c1cc(Cl)ccc1O [Compound 15e] | 2.8 µM | > 10 µM |  |  | 
34 | CC(=NNC(N)=S)c1cc(Cl)cc(Cl)c1O [Compound 15f] | 0.27 µM | > 10 µM |  |  | 
35 | C=CCc1cc(Cl)cc(C(C)=NNC(N)=S)c1O [Compound 19a] | 0.17 ± 0.09 µM | 3.3 ± 1.2 µM | 0.17 ± 0.09 µM | 3.3 ± 1.2 µM | IC50 [2]: 14 ± 5.5 µM
36 | C=CCc1cc(F)cc(C(C)=NNC(N)=S)c1O [Compound 19b] |  |  | 0.24 µM | 24 µM | 
37 | C=CCc1cc(Br)cc(C(C)=NNC(N)=S)c1O [Compound 19c] |  |  | 0.1 µM | 4.1 µM | 
38 | C=CCc1cc(C#N)cc(C(C)=NNC(N)=S)c1O [Compound 19d] |  |  | 0.46 µM | > 10 µM | 

Row | Compound | IC50 [3, 5] | IC50 [4] | IC50 [3, 6] | IC50 ([4]; Table 4) | also measured
39 | C=CCc1cc(CC)cc(C(C)=NNC(N)=S)c1O [Compound 19e] |  |  | 0.2 µM | 1.9 µM | 
40 | C=CCc1cc(CCC)cc(C(C)=NNC(N)=S)c1O [Compound 19f] |  |  | 0.27 µM | 2.4 µM | 
41 | C=CCc1cc(C(C)C)cc(C(C)=NNC(N)=S)c1O [Compound 19g] |  |  | 0.16 µM | 1.4 µM | 
42 | C=CCc1cc(CCCC)cc(C(C)=NNC(N)=S)c1O [Compound 19h] | 0.16 ± 0.07 µM | 1.4 ± 1.1 µM | 0.16 µM | 1.4 µM | IC50 [2]: 12 ± 3.3 µM
43 | C=CCc1cc(C(C)(C)C)cc(C(C)=NNC(N)=S)c1O [Compound 19i] |  |  | 0.31 µM | 1.3 µM | 
44 | C=CCc1cc(CCCCC)cc(C(C)=NNC(N)=S)c1O [Compound 19j] |  |  | 0.19 µM | 3.2 µM | 
45 | C=CCc1cc(CCCCCC)cc(C(C)=NNC(N)=S)c1O [Compound 19k] | 17 ± 7.3 µM | 3.2 ± 1.6 µM | 0.24 µM | 5.2 µM | 
46 | C=CCc1cc(C(C)=O)cc(C(C)=NNC(N)=S)c1O [Compound 19l] | 2.67 ± 0.25 µM | > 10 µM |  |  | 
47 | C=CCc1cc(CC(=O)OC)cc(C(C)=NNC(N)=S)c1O [Compound 19m] |  |  | 1.15 µM |  | 
48 | C=CCc1cc(-c2ccccc2)cc(C(C)=NNC(N)=S)c1O [Compound 19n] | 1.15 µM and 0.19 µM | 5.7 ± 2.5 µM |  |  | 
49 | C=CCc1cc(-c2ccc(Br)cc2)cc(C(C)=NNC(N)=S)c1O [Compound 19o] | 0.18 ± 0.07 µM | 4.2 ± 1.2 µM | 0.18 µM | 4.2 µM | IC50 [2]: 5.8 ± 1.6 µM
50 | C=CCc1cc(-c2ccc(Cl)cc2)cc(C(C)=NNC(N)=S)c1O [Compound 19p] | 0.32 ± 0.07 µM | 2.5 ± 1.4 µM | 0.32 ± 0.07 µM | 2.5 ± 1.4 µM | IC50 [2]: 7.4 ± 2.3 µM
51 | C=CCc1cc(-c2ccc(F)cc2)cc(C(C)=NNC(N)=S)c1O [Compound 19q] |  |  | 0.29 ± 0.06 µM | 5.1 ± 3 µM | 
52 | C=CCc1cc(-c2ccc(Cl)cc2Cl)cc(C(C)=NNC(N)=S)c1O [Compound 19r] | 0.52 ± 0.23 µM | 2.1 ± 0.9 µM | 0.52 ± 0.23 µM | 2.1 ± 0.9 µM | IC50 ([2]; Homo sapiens, MIA PaCa-2): 7.6 ± 0.9 µM
53 | C=CCc1cc(-c2cc(Cl)cc(Cl)c2)cc(C(C)=NNC(N)=S)c1O [Compound 19t] | 0.57 ± 0.27 µM | 17 ± 7.3 µM | 0.57 ± 0.27 µM | 17 ± 7.3 µM | IC50 ([2]; Homo sapiens, MIA PaCa-2): 4.9 ± 2 µM
54 | C=CCc1cc(-c2ccc(C#N)cc2)cc(C(C)=NNC(N)=S)c1O [Compound 19u] | 0.36 ± 0.1 µM |  | 0.4 ± 0.19 µM | 1 ± 0.9 µM | 
55 | C=CCc1cc(-c2cccc(C#N)c2)cc(C(C)=NNC(N)=S)c1O [Compound 19v] | 0.28 ± 0.02 µM | > 10 µM | 0.28 ± 0.02 µM | > 10 µM | IC50 ([2]; Homo sapiens, MIA PaCa-2): 7.8 ± 2.7 µM
56 | C=CCc1cc(-c2ccc(C)c(Cl)c2)cc(C(C)=NNC(N)=S)c1O [Compound 19w] | 0.67 ± 0.16 µM | 9.2 ± 4.2 µM | 0.67 ± 0.16 µM | 9.2 ± 4.2 µM | IC50 [2]: 7.2 ± 3.1 µM
57 | NNC(N)=S [Thiosemicarbazide] |  |  |  |  | LPAAT-β inhibitory activity in words (assay not given) [3]: not by itself active

— patent US20170027893A1, “THIOSEMICARBAZONES INHIBITORS OF LYSOPHOSPHATIDIC ACID ACYLTRANSFERASE AND USES THEREOF” (H. LEE CANCER CENTER AND RESEARCH INSTITUTE, INC., priority 2014, published 2017)
